Experiments:
WI-38 (normal: lung) = experiment: IC50 against cell lines: WI-38; details: Homo sapiens, WI-38, read-out: IC50 ± SD against human cancer cell lines
PC3 (prostate carcinoma) = experiment: IC50 in human cancer cell lines (inhibiting HDAC): PC3; details: read-out: IC50 ± SD against human cancer cell lines
[1] = tested on: MDA-MB-231 (breast carcinoma); experiment: IC50 against human cancer cell lines: MDA-MB-231; details: MDA-MB-231, read-out: IC50 ± SD against human cancer cell lines
Procedure: (§1) More specifically, the IC50 values of test compounds were determined by carrying out a fluorimetric histone deacetylase assay following the manufacturer's instructions. For a pan-HDAC assay, HeLa nuclear extracts were used as a source of histone deacetylase (BioVision Inc.). Histone deacetylase isomer inhibition assays were conducted using purified recombinant histone deacetylase proteins of the various isomers (BPS Bioscience Inc.). Reactions were performed in 0.1 mol/L KCl, 20 mmol/L HEPES/NaOH at pH 7.9, 20% glycerol, 0.2 mmol/L DTA, 0.5 mmol/L DTT, and 0.5 mmol/L phenylmethylsulfonylfluoride. […] Reactions were carried out in triplicate for each test compound. Each point represented the mean±SD of replicates.

[2] = tested on: KB cell line (oral carcinoma); experiment: IC50 in human cancer cell lines (inhibiting HDAC): KB; details: Homo sapiens, read-out: IC50 ± SD against human cancer cell lines, KB, oral carcinoma
KB-7D (KB resistant) = experiment: IC50 against human cancer cell lines: KB-7D; details: KB7D, read-out: IC50 ± SD against human cancer cell lines
Procedure: as §1

[3] = tested on: histone and a-tubulin acetylation in human DU145 cells; experiment: Western blot: acetylation in DU145 cells; assay type: cell-based
Procedure: More specifically, cells in the logarithmic phase were initially seeded at a density of 1×10^6 in 100 mm^2 dishes. […] IC50 indicia of compound in vitro potency) for the indicated times (i.e., 24 and 48 hours), adherent cells were collected for protein extract preparation. Briefly, cells were lysed with the cell lysis reagent CelLytic™ M (Sigma-Aldrich) containing 1 mM DTT, 1 mM PMSF and protease inhibitors for whole-cell lysate preparation. Equal amounts of lysate (on a protein basis) were then differentiated using the SDS-PAGE, blotted on PVDF membranes, conjugated with various specific primary antibodies, and then probed with appropriate secondary antibodies. The immunoreactive bands were detected using the ECL method and visualized on Kodak Bio-MAX MR film. Proteins from cells were extracted and subjected to the western blotting analysis. β-Actin was used as an internal control. The deacetylase enzyme assay was based on a homogeneous fluorescence release assay. […] After fluorophore from the deacetylated substrates, fluorescent signal was detected.

[4] = tested on: HT-29 (colorectal carcinoma); experiment: IC50 in human cancer cell lines (inhibiting HDAC): HT-29; details: HT-29, read-out: IC50 ± SD against human cancer cell lines
[5] = tested on: H460 (non-small-cell lung carcinoma); experiment: IC50 in human cancer cell lines (inhibiting HDAC): H460; details: NCI-H460, read-out: IC50 ± SD against human cancer cell lines
[6] = tested on: LNCaP-R1 (prostate carcinoma); experiment: IC50 against human cancer cell lines: LNCaP-R1; details: read-out: IC50 ± SD against human cancer cell lines
Procedure: as §1

[7] = tested on: histone and α-tubulin acetylation in PC3 cells; experiment: Western blot: acetylation in PC3 cells; assay type: cell-based, human; details: concentration-dependent
Procedure: More specifically, cells in the logarithmic phase were initially seeded at a density of 1×10^6 in 100 mm^2 dishes. […] Briefly, cells were lysed with the cell lysis reagent CelLytic™ M (Sigma-Aldrich) containing 1 mM DTT, 1 mM PMSF and protease inhibitors for whole-cell lysate preparation. Equal amounts of lysate (on a protein basis) were then differentiated using the SDS-PAGE, blotted on PVDF membranes, conjugated with various specific primary antibodies, and then probed with appropriate secondary antibodies. The immunoreactive bands were detected using the ECL method and visualized on Kodak Bio-MAX MR film.
Proteins from cells were extracted and subjected to the western blotting analysis. β-Actin was used as an internal control. The deacetylase enzyme assay was based on a homogeneous fluorescence release assay. […] After fluorophore from the deacetylated substrates, fluorescent signal was detected.

MCF-7 (breast carcinoma) = experiment: IC50 in human cancer cell lines (inhibiting HDAC): MCF-7; details: MCF7, read-out: IC50 ± SD against human cancer cell lines
[8] = tested on: androgen-independent PC3 prostate cancer cells; experiment: Cell cycle analysis; assay type: cell-based, human; details: androgen-independent PC3 prostate cancer cells
Procedure: More specifically, cells in the logarithmic phase were initially seeded at a density of 1×10^6 in 100 mm^2 dishes. After treatment with various concentrations of test compounds for the indicated times, cells were trypsinized, washed with PBS, and fixed in 70% ethanol. The fixed cells were then treated with 50 μg/mL RNase and stained with 50 μg/mL propidium iodide at room temperature for 20 minutes. The DNA content was determined by BD FACS Calibur flow cytometry system (BD Biosciences). For each analysis, 10,000 cells were counted, and the percentage of cells in each phase was calculated using ModFit LT software (Verity Software House, Inc.).

KB-L30 (KB-resistant) = experiment: IC50 against human cancer cell lines: KB-L30; details: read-out: IC50 ± SD against human cancer cell lines
Procedure: as §1

[9] = tested on: Detroit551 (normal: fibroblast); experiment: IC50 against cell lines: Detroit551; details: Homo sapiens, Detroit 551, read-out: IC50 ± SD against human cancer cell lines
[10] = tested on: LNCaP-R2 (prostate carcinoma); experiment: IC50 against human cancer cell lines: LNCaP-R2; details: read-out: IC50 ± SD against human cancer cell lines
KB-VIN10 (KB resistant) = experiment: IC50 against human cancer cell lines: KB-VIN10; details: Homo sapiens, KB-VIN10, read-out: IC50 ± SD against human cancer cell lines
[11] = tested on: DU-145 (prostate carcinoma); experiment: IC50 against human cancer cell lines: DU-145; details: DU-145, read-out: IC50 ± SD against human cancer cell lines
Procedure: as §1

O=C(/C=C/c1cnc2c(ccn2S(=O)(=O)c2ccccc2)c1)NO [Compound 14a, (E)-N-hydroxy-3-(1-(phenylsulfonyl)-1H-pyrrolo[2,3-b]pyridin-5-yl)acrylamide]
IC50 (WI-38 (normal: lung)): > 1000 nM | IC50 (PC3 (prostate carcinoma)): 380 ± 220 nM | IC50 [1]: 184 ± 50 nM | IC50 [2]: 252 ± 58.5 nM | IC50 (KB-7D (KB resistant)): 276 ± 78.4 nM | histone and a-tubulin acetylation [3]: induced histone and a-tubulin acetylation | IC50 [4]: 182 ± 26.7 nM | IC50 [5]: 243 ± 70.4 nM | IC50 [6]: 156 ± 40 nM | histone and α-tubulin acetylation [7]: induced histone and α-tubulin acetylation | IC50 (MCF-7 (breast carcinoma)): 170 ± 55 nM | cell cycle arrest and apoptosis [8]: induced cell cycle arrest and apoptosis | IC50 (KB-L30 (KB-resistant)): 445 ± 249 nM | IC50 [9]: > 1000 nM | IC50 [10]: 141 ± 50 nM | IC50 (KB-VIN10 (KB resistant)): 213 nM | IC50 [11]: 420 ± 170 nM
